Source: ChEMBL document CHEMBL6078640, “Trivalent oleanolic acid-glucose conjugates: Synthesis and efficacy against Influenza A virus” (Eur J Med Chem, 2024)

How the values were obtained:
[1] = system: Influenza A virus; test: Antiviral activity against Influenza A virus H1N1 infected in MDCK cells assessed as inhibition of viral growth at 100 uM relative to control; assay type: functional
[2] = Cytotoxicity against dog MDCK cells assessed as reduction in cell viability incubated for 40 hrs by celltiter-glo assay; assay type: toxicity, cell-based, Canis lupus familiaris
[3] = system: Influenza A virus; test: Antiviral activity against influenza A virus A/WSN/33(H1N1) infected in MDCK cells assessed as inhibition of viral-induced cytopathic effect pretreated with cells followed by viral infection and measured after 40 hrs by fluorescence based microplate reader analysis; assay type: functional, organism-based
[4] = Selectivity index, ratio of CC50 for dog MDCK cells to IC50 for influenza A virus A/WSN/33(H1N1) infected in MDCK cells; assay type: toxicity, cell-based; settings: read-out: Selectivity Index
[5] = system: MDCK; test: Cytotoxicity against dog MDCK cells assessed as reduction in cell viability at 100 uM incubated for 40 hrs by celltiter-glo assay; assay type: toxicity, cell-based, Canis lupus familiaris

CC(=O)OC[C@H]1O[C@@H](n2cc(CNC(=O)[C@]34CCC(C)(C)C[C@H]3C3=CC[C@@H]5[C@@]6(C)CC[C@H](OC(=O)NCc7cn(Cc8cc(Cn9cc(CNC(=O)O[C@H]%10CC[C@]%11(C)[C@H]%12CC=C%13[C@@H]%14CC(C)(C)CC[C@]%14(C(=O)NCc%14cn([C@@H]%15O[C@H](COC(C)=O)[C@@H](OC(C)=O)[C@H](OC(C)=O)[C@H]%15OC(C)=O)nn%14)CC[C@@]%13(C)[C@]%12(C)CC[C@H]%11C%10(C)C)nn9)cc(Cn9cc(CNC(=O)O[C@H]%10CC[C@]%11(C)[C@H]%12CC=C%13[C@@H]%14CC(C)(C)CC[C@]%14(C(=O)NCc%14cn([C@@H]%15O[C@H](COC(C)=O)[C@@H](OC(C)=O)[C@H](OC(C)=O)[C@H]%15OC(C)=O)nn%14)CC[C@@]%13(C)[C@]%12(C)CC[C@H]%11C%10(C)C)nn9)c8)nn7)C(C)(C)[C@@H]6CC[C@@]5(C)[C@]3(C)CC4)nn2)[C@H](OC(C)=O)[C@@H](OC(C)=O)[C@@H]1OC(C)=O showed an inhibition at 100 µM [1] of over 75%, a CC50 at 40 h [2] of over 100 µM and an IC50 [3] of 0.68 µM. The selectivity ratio [4] was over 147 and the Activity [5] was “Non-toxic”.

Work on CC(=O)OC[C@H]1O[C@@H](n2cc(CNC(=O)[C@]34CCC(C)(C)C[C@H]3C3=CC[C@@H]5[C@@]6(C)CC[C@H](OC(=O)NCCCc7cn(CC(CO)(Cn8cc(CCCNC(=O)O[C@H]9CC[C@]%10(C)[C@H]%11CC=C%12[C@@H]%13CC(C)(C)CC[C@]%13(C(=O)NCc%13cn([C@@H]%14O[C@H](COC(C)=O)[C@@H](OC(C)=O)[C@H](OC(C)=O)[C@H]%14OC(C)=O)nn%13)CC[C@@]%12(C)[C@]%11(C)CC[C@H]%10C9(C)C)nn8)Cn8cc(CCCNC(=O)O[C@H]9CC[C@]%10(C)[C@H]%11CC=C%12[C@@H]%13CC(C)(C)CC[C@]%13(C(=O)NCc%13cn([C@@H]%14O[C@H](COC(C)=O)[C@@H](OC(C)=O)[C@H](OC(C)=O)[C@H]%14OC(C)=O)nn%13)CC[C@@]%12(C)[C@]%11(C)CC[C@H]%10C9(C)C)nn8)nn7)C(C)(C)[C@@H]6CC[C@@]5(C)[C@]3(C)CC4)nn2)[C@H](OC(C)=O)[C@@H](OC(C)=O)[C@@H]1OC(C)=O yielded an inhibition at 100 µM [1] of over 75%, a CC50 at 40 h [2] of over 100 µM and an IC50 [3] of 4.61 µM. For the same molecule, the selectivity ratio [4] was over 21.7 and the Activity [5] was “Non-toxic”.

Molecule CC(=O)OC[C@H]1O[C@@H](n2cc(CNC(=O)[C@]34CCC(C)(C)C[C@H]3C3=CC[C@@H]5[C@@]6(C)CC[C@H](OC(=O)NCCCCCc7cn(CC(CO)(Cn8cc(CCCCCNC(=O)O[C@H]9CC[C@]%10(C)[C@H]%11CC=C%12[C@@H]%13CC(C)(C)CC[C@]%13(C(=O)NCc%13cn([C@@H]%14O[C@H](COC(C)=O)[C@@H](OC(C)=O)[C@H](OC(C)=O)[C@H]%14OC(C)=O)nn%13)CC[C@@]%12(C)[C@]%11(C)CC[C@H]%10C9(C)C)nn8)Cn8cc(CCCCCNC(=O)O[C@H]9CC[C@]%10(C)[C@H]%11CC=C%12[C@@H]%13CC(C)(C)CC[C@]%13(C(=O)NCc%13cn([C@@H]%14O[C@H](COC(C)=O)[C@@H](OC(C)=O)[C@H](OC(C)=O)[C@H]%14OC(C)=O)nn%13)CC[C@@]%12(C)[C@]%11(C)CC[C@H]%10C9(C)C)nn8)nn7)C(C)(C)[C@@H]6CC[C@@]5(C)[C@]3(C)CC4)nn2)[C@H](OC(C)=O)[C@@H](OC(C)=O)[C@@H]1OC(C)=O has an inhibition at 100 µM [1] of over 75%, a CC50 at 40 h [2] of over 100 µM and an IC50 [3] of 24.9 µM. The selectivity ratio [4] was over 4.02 and the Activity [5] was “Non-toxic”.

Molecule CCOC(=O)C1=C[C@@H](OC(CC)CC)[C@H](NC(C)=O)[C@@H](N)C1.O=P(O)(O)O [OSELTAMIVIR PHOSPHATE] has a CC50 at 40 h [2] of over 100 µM, an IC50 [3] of 5.47 µM and a selectivity ratio [4] of over 18.3. For the same molecule, the Activity [5] was “Non-toxic”.

In the case of CC(=O)OC[C@H]1O[C@@H](n2cc(CNC(=O)[C@]34CCC(C)(C)C[C@H]3C3=CC[C@@H]5[C@@]6(C)CC[C@H](OC(=O)NCCc7cn(Cc8cc(Cn9cc(CCNC(=O)O[C@H]%10CC[C@]%11(C)[C@H]%12CC=C%13[C@@H]%14CC(C)(C)CC[C@]%14(C(=O)NCc%14cn([C@@H]%15O[C@H](COC(C)=O)[C@@H](OC(C)=O)[C@H](OC(C)=O)[C@H]%15OC(C)=O)nn%14)CC[C@@]%13(C)[C@]%12(C)CC[C@H]%11C%10(C)C)nn9)cc(Cn9cc(CCNC(=O)O[C@H]%10CC[C@]%11(C)[C@H]%12CC=C%13[C@@H]%14CC(C)(C)CC[C@]%14(C(=O)NCc%14cn([C@@H]%15O[C@H](COC(C)=O)[C@@H](OC(C)=O)[C@H](OC(C)=O)[C@H]%15OC(C)=O)nn%14)CC[C@@]%13(C)[C@]%12(C)CC[C@H]%11C%10(C)C)nn9)c8)nn7)C(C)(C)[C@@H]6CC[C@@]5(C)[C@]3(C)CC4)nn2)[C@H](OC(C)=O)[C@@H](OC(C)=O)[C@@H]1OC(C)=O, the inhibition at 100 µM [1] is reported as over 75%, the CC50 at 40 h [2] is reported as over 100 µM and the IC50 [3] is reported as 46.8 µM. For the same molecule, the selectivity ratio [4] was over 8.55 and the Activity [5] was “Non-toxic”.

Molecule CC1(C)CC[C@]2(C(=O)NCc3cn([C@@H]4O[C@H](CO)[C@@H](O)[C@H](O)[C@H]4O)nn3)CC[C@]3(C)C(=CC[C@@H]4[C@@]5(C)CC[C@H](OC(=O)NCCCCCc6cn(CC(CO)(Cn7cc(CCCCCNC(=O)O[C@H]8CC[C@]9(C)[C@H]%10CC=C%11[C@@H]%12CC(C)(C)CC[C@]%12(C(=O)NCc%12cn([C@@H]%13O[C@H](CO)[C@@H](O)[C@H](O)[C@H]%13O)nn%12)CC[C@@]%11(C)[C@]%10(C)CC[C@H]9C8(C)C)nn7)Cn7cc(CCCCCNC(=O)O[C@H]8CC[C@]9(C)[C@H]%10CC=C%11[C@@H]%12CC(C)(C)CC[C@]%12(C(=O)NCc%12cn([C@@H]%13O[C@H](CO)[C@@H](O)[C@H](O)[C@H]%13O)nn%12)CC[C@@]%11(C)[C@]%10(C)CC[C@H]9C8(C)C)nn7)nn6)C(C)(C)[C@@H]5CC[C@]43C)[C@@H]2C1 has an inhibition at 100 µM [1] of over 75%, a CC50 at 40 h [2] of over 100 µM and an IC50 [3] of 5.99 µM. For the same molecule, the selectivity ratio [4] was over 16.7 and the Activity [5] was “Non-toxic”.

In the case of CC1(C)CC[C@]2(C(=O)NCc3cn([C@@H]4O[C@H](CO)[C@@H](O)[C@H](O)[C@H]4O)nn3)CC[C@]3(C)C(=CC[C@@H]4[C@@]5(C)CC[C@H](OC(=O)NCCCc6cn(CC(CO)(Cn7cc(CCCNC(=O)O[C@H]8CC[C@]9(C)[C@H]%10CC=C%11[C@@H]%12CC(C)(C)CC[C@]%12(C(=O)NCc%12cn([C@@H]%13O[C@H](CO)[C@@H](O)[C@H](O)[C@H]%13O)nn%12)CC[C@@]%11(C)[C@]%10(C)CC[C@H]9C8(C)C)nn7)Cn7cc(CCCNC(=O)O[C@H]8CC[C@]9(C)[C@H]%10CC=C%11[C@@H]%12CC(C)(C)CC[C@]%12(C(=O)NCc%12cn([C@@H]%13O[C@H](CO)[C@@H](O)[C@H](O)[C@H]%13O)nn%12)CC[C@@]%11(C)[C@]%10(C)CC[C@H]9C8(C)C)nn7)nn6)C(C)(C)[C@@H]5CC[C@]43C)[C@@H]2C1, the inhibition at 100 µM [1] is reported as over 75%, the CC50 at 40 h [2] is reported as over 100 µM and the IC50 [3] is reported as 3.93 µM. For the same molecule, the selectivity ratio [4] was over 25.5 and the Activity [5] was “Non-toxic”.

CC(=O)OC[C@H]1O[C@@H](n2cc(CNC(=O)[C@]34CCC(C)(C)C[C@H]3C3=CC[C@@H]5[C@@]6(C)CC[C@H](OC(=O)NCc7cn(CC(CO)(Cn8cc(CNC(=O)O[C@H]9CC[C@]%10(C)[C@H]%11CC=C%12[C@@H]%13CC(C)(C)CC[C@]%13(C(=O)NCc%13cn([C@@H]%14O[C@H](COC(C)=O)[C@@H](OC(C)=O)[C@H](OC(C)=O)[C@H]%14OC(C)=O)nn%13)CC[C@@]%12(C)[C@]%11(C)CC[C@H]%10C9(C)C)nn8)Cn8cc(CNC(=O)O[C@H]9CC[C@]%10(C)[C@H]%11CC=C%12[C@@H]%13CC(C)(C)CC[C@]%13(C(=O)NCc%13cn([C@@H]%14O[C@H](COC(C)=O)[C@@H](OC(C)=O)[C@H](OC(C)=O)[C@H]%14OC(C)=O)nn%13)CC[C@@]%12(C)[C@]%11(C)CC[C@H]%10C9(C)C)nn8)nn7)C(C)(C)[C@@H]6CC[C@@]5(C)[C@]3(C)CC4)nn2)[C@H](OC(C)=O)[C@@H](OC(C)=O)[C@@H]1OC(C)=O gave an inhibition at 100 µM [1] of over 75%, a CC50 at 40 h [2] of over 100 µM and an IC50 [3] of 70.4 µM. The selectivity ratio [4] was over 1.42 and the Activity [5] was “Non-toxic”.

For CC1(C)CC[C@]2(C(=O)NCc3cn([C@@H]4O[C@H](CO)[C@@H](O)[C@H](O)[C@H]4O)nn3)CC[C@]3(C)C(=CC[C@@H]4[C@@]5(C)CC[C@H](OC(=O)NCc6cn(CC(CO)(Cn7cc(CNC(=O)O[C@H]8CC[C@]9(C)[C@H]%10CC=C%11[C@@H]%12CC(C)(C)CC[C@]%12(C(=O)NCc%12cn([C@@H]%13O[C@H](CO)[C@@H](O)[C@H](O)[C@H]%13O)nn%12)CC[C@@]%11(C)[C@]%10(C)CC[C@H]9C8(C)C)nn7)Cn7cc(CNC(=O)O[C@H]8CC[C@]9(C)[C@H]%10CC=C%11[C@@H]%12CC(C)(C)CC[C@]%12(C(=O)NCc%12cn([C@@H]%13O[C@H](CO)[C@@H](O)[C@H](O)[C@H]%13O)nn%12)CC[C@@]%11(C)[C@]%10(C)CC[C@H]9C8(C)C)nn7)nn6)C(C)(C)[C@@H]5CC[C@]43C)[C@@H]2C1, the inhibition at 100 µM [1] was over 75%, the CC50 at 40 h [2] was over 100 µM and the IC50 [3] was 6.91 µM. For the same molecule, the selectivity ratio [4] was over 14.5 and the Activity [5] was “Non-toxic”.

In the case of CC1(C)CC[C@]2(C(=O)NCc3cn([C@@H]4O[C@H](CO)[C@@H](O)[C@H](O)[C@H]4O)nn3)CC[C@]3(C)C(=CC[C@@H]4[C@@]5(C)CC[C@H](OC(=O)NCCc6cn(CC(CO)(Cn7cc(CCNC(=O)O[C@H]8CC[C@]9(C)[C@H]%10CC=C%11[C@@H]%12CC(C)(C)CC[C@]%12(C(=O)NCc%12cn([C@@H]%13O[C@H](CO)[C@@H](O)[C@H](O)[C@H]%13O)nn%12)CC[C@@]%11(C)[C@]%10(C)CC[C@H]9C8(C)C)nn7)Cn7cc(CCNC(=O)O[C@H]8CC[C@]9(C)[C@H]%10CC=C%11[C@@H]%12CC(C)(C)CC[C@]%12(C(=O)NCc%12cn([C@@H]%13O[C@H](CO)[C@@H](O)[C@H](O)[C@H]%13O)nn%12)CC[C@@]%11(C)[C@]%10(C)CC[C@H]9C8(C)C)nn7)nn6)C(C)(C)[C@@H]5CC[C@]43C)[C@@H]2C1, the CC50 at 40 h [2] is reported as over 100 µM, the IC50 [3] is reported as 3.39 µM and the selectivity ratio [4] is reported as over 29.5. For the same molecule, the Activity [5] was “Non-toxic”.
